{"source": "patent US20050181376A1", "about": "“Antisense modulation of microsomal triglyceride transfer protein expression” (ISIS Pharmaceuticals, Inc., priority 2001, published 2005)", "note": "Strand notation (5' to 3'): a small letter for the sugar, then the base; units joined by * are phosphorothioate-linked, units joined directly phosphodiester-linked; [ ] holds rarer units or linkages, { } end groups; capitals alone tell only the bases. e = 2'-O-(2-methoxyethyl) (MOE); [5mC] = 5-methylcytosine; d = 2'-deoxy (DNA)"}
{"tested_on": "mouse microsomal triglyceride transfer protein mRNA", "assay": "Antisense inhibition of mouse microsomal triglyceride transfer protein mRNA levels in primary hepatocytes, quantitative real-time PCR", "type": "cell-based", "parameters": "concentration or dose not given beside the values", "conditions": "averages from two experiments", "method": "Primary mouse hepatocytes were prepared from CD-1 mice purchased from Charles River Labs (Wilmington, Mass.) and were routinely cultured in Hepatocyte Attachment Media (Gibco) supplemented with 10% Fetal Bovine Serum (Gibco/Life Technologies, Gaithersburg, Md.), 250 nM dexamethasone (Sigma), and 10 nM bovine insulin (Sigma). Cells were seeded into 96-well plates (Falcon-Primaria #3872) at a density of 10000 cells/well for use in RT-PCR analysis.\nCells were harvested 16-24 hours after oligonucleotide treatment.\nAll cytidine residues are 5-methylcytidines. […] Data are averages from two experiments. If present, “N.D.” indicates “no data”."}
{"substance": "CTCGCGATACCACAGACTGA (all phosphorothioate, sugars by position and methylation of C not given here; 2'-MOE wings and deoxy gap) [ISIS 144502, 2′-MOE gapmer phosphorothioate antisense oligonucleotide to mouse MTP]", "% INHIB (inhibition of mouse microsomal triglyceride transfer protein mRNA levels)": "at least 30%"}
{"substance": "GTTATCACCACAGCCACCCG (all phosphorothioate, sugars by position and methylation of C not given here; 2'-MOE wings and deoxy gap) [ISIS 144503, 2′-MOE gapmer phosphorothioate antisense oligonucleotide to mouse MTP]", "% INHIB (inhibition of mouse microsomal triglyceride transfer protein mRNA levels)": "at least 30%"}
{"substance": "144502 (e[5mC]*eT*e[5mC]*eG*e[5mC]*dG*dA*dT*dA*d[5mC]*d[5mC]*dA*d[5mC]*dA*dG*eA*e[5mC]*eT*eG*eA; antisense) [compound 144502]", "% INHIB (inhibition of mouse microsomal triglyceride transfer protein mRNA levels)": "51%"}
{"substance": "CAGCCTCAGCATACTTCAGA (all phosphorothioate, sugars by position and methylation of C not given here; 2'-MOE wings and deoxy gap) [ISIS 144488, 2′-MOE gapmer phosphorothioate antisense oligonucleotide to mouse MTP]", "% INHIB (inhibition of mouse microsomal triglyceride transfer protein mRNA levels)": "at least 30%"}
{"substance": "144473 (eG*e[5mC]*e[5mC]*eT*e[5mC]*d[5mC]*dA*dG*dG*dT*dT*dG*dT*d[5mC]*d[5mC]*eT*eT*e[5mC]*e[5mC]*e[5mC]; antisense) [compound 144473]", "% INHIB (inhibition of mouse microsomal triglyceride transfer protein mRNA levels)": "1%"}
{"substance": "144485 (e[5mC]*eT*e[5mC]*eT*eG*dA*dT*dG*dT*d[5mC]*dG*dT*dT*dG*d[5mC]*eT*eT*eG*e[5mC]*eA; antisense) [compound 144485]", "% INHIB (inhibition of mouse microsomal triglyceride transfer protein mRNA levels)": "50%"}
{"substance": "144480 (eG*e[5mC]*eT*e[5mC]*eG*dA*dG*dG*dA*d[5mC]*d[5mC]*dT*dG*dT*d[5mC]*e[5mC]*e[5mC]*eA*e[5mC]*eA; antisense) [compound 144480]", "% INHIB (inhibition of mouse microsomal triglyceride transfer protein mRNA levels)": "51%"}
{"substance": "144474 (eT*eA*eG*eA*eA*d[5mC]*dT*d[5mC]*d[5mC]*dT*dT*dG*dA*d[5mC]*d[5mC]*eT*eT*e[5mC]*e[5mC]*e[5mC]; antisense) [compound 144474]", "% INHIB (inhibition of mouse microsomal triglyceride transfer protein mRNA levels)": "16%"}
{"substance": "CCTGGAGTATGATACTGCTG (all phosphorothioate, sugars by position and methylation of C not given here; 2'-MOE wings and deoxy gap) [ISIS 144484, 2′-MOE gapmer phosphorothioate antisense oligonucleotide to mouse MTP]", "% INHIB (inhibition of mouse microsomal triglyceride transfer protein mRNA levels)": "at least 30%"}
{"substance": "144506 (e[5mC]*eA*e[5mC]*eA*eT*d[5mC]*d[5mC]*dG*dG*d[5mC]*d[5mC]*dA*d[5mC]*dT*dA*eG*eG*e[5mC]*eT*e[5mC]; antisense) [compound 144506]", "% INHIB (inhibition of mouse microsomal triglyceride transfer protein mRNA levels)": "0%"}
{"substance": "144503 (eG*eT*eT*eA*eT*d[5mC]*dA*d[5mC]*d[5mC]*dA*d[5mC]*dA*dG*d[5mC]*d[5mC]*eA*e[5mC]*e[5mC]*e[5mC]*eG; antisense) [compound 144503]", "% INHIB (inhibition of mouse microsomal triglyceride transfer protein mRNA levels)": "50%"}
{"substance": "144467 (eG*e[5mC]*eT*e[5mC]*e[5mC]*d[5mC]*dT*d[5mC]*dT*dG*d[5mC]*d[5mC]*dA*d[5mC]*dA*eT*e[5mC]*e[5mC]*eA*eG; antisense) [compound 144467]", "% INHIB (inhibition of mouse microsomal triglyceride transfer protein mRNA levels)": "0%"}
{"substance": "144478 (e[5mC]*e[5mC]*e[5mC]*eT*eG*dG*dT*d[5mC]*dT*d[5mC]*dT*dT*d[5mC]*dT*dG*e[5mC]*eA*eA*eG*e[5mC]; antisense) [compound 144478]", "% INHIB (inhibition of mouse microsomal triglyceride transfer protein mRNA levels)": "41%"}
{"substance": "CAGAATGCCAGAGCCAGAGT (all phosphorothioate, sugars by position and methylation of C not given here; 2'-MOE wings and deoxy gap) [ISIS 144495, 2′-MOE gapmer phosphorothioate antisense oligonucleotide to mouse MTP]", "% INHIB (inhibition of mouse microsomal triglyceride transfer protein mRNA levels)": "at least 30%"}
{"substance": "ATTCTGACACAGCTTCCTGA (all phosphorothioate, sugars by position and methylation of C not given here; 2'-MOE wings and deoxy gap) [ISIS 144486, 2′-MOE gapmer phosphorothioate antisense oligonucleotide to mouse MTP]", "% INHIB (inhibition of mouse microsomal triglyceride transfer protein mRNA levels)": "at least 30%"}
{"substance": "144499 (e[5mC]*eG*e[5mC]*eT*eG*dA*d[5mC]*dA*dG*dG*dG*dT*d[5mC]*dG*d[5mC]*e[5mC]*eG*eG*eA*eT; antisense) [compound 144499]", "% INHIB (inhibition of mouse microsomal triglyceride transfer protein mRNA levels)": "38%"}
{"substance": "144489 (eG*eT*eG*eG*e[5mC]*dT*dG*dA*d[5mC]*dG*dG*dG*d[5mC]*d[5mC]*d[5mC]*eT*eT*e[5mC]*eT*e[5mC]; antisense) [compound 144489]", "% INHIB (inhibition of mouse microsomal triglyceride transfer protein mRNA levels)": "42%"}
{"substance": "144494 (eA*eA*eG*eG*e[5mC]*dT*dG*dT*dA*dT*dG*dT*dG*dG*dA*e[5mC]*eG*e[5mC]*eT*eG; antisense) [compound 144494]", "% INHIB (inhibition of mouse microsomal triglyceride transfer protein mRNA levels)": "27%"}
{"substance": "144491 (e[5mC]*eA*eG*e[5mC]*eA*dG*d[5mC]*dG*dG*d[5mC]*dA*dG*dT*dT*dG*eT*eG*e[5mC]*eG*e[5mC]; antisense) [compound 144491]", "% INHIB (inhibition of mouse microsomal triglyceride transfer protein mRNA levels)": "26%"}
{"substance": "144493 (eG*e[5mC]*e[5mC]*eA*eG*dT*dA*dT*dA*dG*dG*d[5mC]*dA*dG*dA*eA*eG*eA*eG*eG; antisense) [compound 144493]", "% INHIB (inhibition of mouse microsomal triglyceride transfer protein mRNA levels)": "24%"}
{"substance": "144497 (e[5mC]*eT*e[5mC]*eT*e[5mC]*d[5mC]*dT*dT*d[5mC]*dA*dT*d[5mC]*dA*dG*dG*eA*eG*eT*eG*eG; antisense) [compound 144497]", "% INHIB (inhibition of mouse microsomal triglyceride transfer protein mRNA levels)": "57%"}
{"substance": "144479 (e[5mC]*eA*e[5mC]*e[5mC]*eT*dG*d[5mC]*d[5mC]*dA*d[5mC]*dT*dT*dG*d[5mC]*dT*eT*e[5mC]*e[5mC]*e[5mC]*eG; antisense) [compound 144479]", "% INHIB (inhibition of mouse microsomal triglyceride transfer protein mRNA levels)": "65%"}
{"substance": "144496 (e[5mC]*eT*eG*e[5mC]*eA*dA*dT*dT*dA*dA*dG*d[5mC]*d[5mC]*dT*dT*e[5mC]*e[5mC]*eA*eG*e[5mC]; antisense) [compound 144496]", "% INHIB (inhibition of mouse microsomal triglyceride transfer protein mRNA levels)": "40%"}
{"substance": "144507 (eT*e[5mC]*eT*e[5mC]*eA*dG*dA*dG*dT*dT*d[5mC]*dT*dG*dT*dT*eG*eA*eT*eG*eG; antisense) [compound 144507]", "% INHIB (inhibition of mouse microsomal triglyceride transfer protein mRNA levels)": "0%"}
{"substance": "144471 (e[5mC]*eA*eT*e[5mC]*eA*d[5mC]*d[5mC]*dA*dT*d[5mC]*dA*dG*dG*dA*dT*eT*e[5mC]*e[5mC]*eT*e[5mC]; antisense) [compound 144471]", "% INHIB (inhibition of mouse microsomal triglyceride transfer protein mRNA levels)": "21%"}
{"substance": "144487 (e[5mC]*e[5mC]*e[5mC]*eA*eG*dG*dA*dT*d[5mC]*dA*dG*d[5mC]*dT*dT*d[5mC]*eT*eT*eA*eG*e[5mC]; antisense) [compound 144487]", "% INHIB (inhibition of mouse microsomal triglyceride transfer protein mRNA levels)": "19%"}
{"substance": "TTCCAGTGCTCCGCCAGAGA (all phosphorothioate, sugars by position and methylation of C not given here; 2'-MOE wings and deoxy gap) [ISIS 144481, 2′-MOE gapmer phosphorothioate antisense oligonucleotide to mouse MTP]", "% INHIB (inhibition of mouse microsomal triglyceride transfer protein mRNA levels)": "at least 30%"}
{"substance": "144472 (eG*e[5mC]*e[5mC]*e[5mC]*eT*dG*dG*dA*dA*dG*dA*dT*dG*d[5mC]*dT*e[5mC]*eT*eT*e[5mC]*eT; antisense) [compound 144472]", "% INHIB (inhibition of mouse microsomal triglyceride transfer protein mRNA levels)": "0%"}
{"substance": "GACCACCCTGGATCTCCATA (all phosphorothioate, sugars by position and methylation of C not given here; 2'-MOE wings and deoxy gap) [ISIS 144501, 2′-MOE gapmer phosphorothioate antisense oligonucleotide to mouse MTP]", "% INHIB (inhibition of mouse microsomal triglyceride transfer protein mRNA levels)": "at least 30%"}
{"substance": "144484 (e[5mC]*e[5mC]*eT*eG*eG*dA*dG*dT*dA*dT*dG*dA*dT*dA*d[5mC]*eT*eG*e[5mC]*eT*eG; antisense) [compound 144484]", "% INHIB (inhibition of mouse microsomal triglyceride transfer protein mRNA levels)": "48%"}
{"substance": "CCCTGGTCTCTTCTGCAAGC (all phosphorothioate, sugars by position and methylation of C not given here; 2'-MOE wings and deoxy gap) [ISIS 144478, 2′-MOE gapmer phosphorothioate antisense oligonucleotide to mouse MTP]", "% INHIB (inhibition of mouse microsomal triglyceride transfer protein mRNA levels)": "at least 30%"}
{"substance": "144470 (eG*eT*eA*eG*e[5mC]*d[5mC]*d[5mC]*dA*d[5mC]*dG*d[5mC]*dT*dG*dT*d[5mC]*eT*eT*eG*e[5mC]*eG; antisense) [compound 144470]", "% INHIB (inhibition of mouse microsomal triglyceride transfer protein mRNA levels)": "5%"}
{"substance": "CCCTTTCACCACGCTGACAG (all phosphorothioate, sugars by position and methylation of C not given here; 2'-MOE wings and deoxy gap) [ISIS 144500, 2′-MOE gapmer phosphorothioate antisense oligonucleotide to mouse MTP]", "% INHIB (inhibition of mouse microsomal triglyceride transfer protein mRNA levels)": "at least 30%"}
{"substance": "144498 (eT*eG*eA*e[5mC]*eA*dT*dG*d[5mC]*d[5mC]*dA*dG*d[5mC]*dA*dT*dA*eA*eG*eA*eG*eT; antisense) [compound 144498]", "% INHIB (inhibition of mouse microsomal triglyceride transfer protein mRNA levels)": "44%"}
